pIC50: −log10 of the molar value. The source made the active and inactive calls. The rule behind the calls is not given here.
Legend:
[1] = molecular target: T1, Protein deacetylase HDAC6 (Mus musculus) (UniProt Q9Z2V5); test: Inhibition of HDAC6 in mouse B16 cells assessed as accumulation of acetylated alpha-tubulin level after 24 hrs by Western blotting analysis; type: cell-based
T1 sequence (whole entry): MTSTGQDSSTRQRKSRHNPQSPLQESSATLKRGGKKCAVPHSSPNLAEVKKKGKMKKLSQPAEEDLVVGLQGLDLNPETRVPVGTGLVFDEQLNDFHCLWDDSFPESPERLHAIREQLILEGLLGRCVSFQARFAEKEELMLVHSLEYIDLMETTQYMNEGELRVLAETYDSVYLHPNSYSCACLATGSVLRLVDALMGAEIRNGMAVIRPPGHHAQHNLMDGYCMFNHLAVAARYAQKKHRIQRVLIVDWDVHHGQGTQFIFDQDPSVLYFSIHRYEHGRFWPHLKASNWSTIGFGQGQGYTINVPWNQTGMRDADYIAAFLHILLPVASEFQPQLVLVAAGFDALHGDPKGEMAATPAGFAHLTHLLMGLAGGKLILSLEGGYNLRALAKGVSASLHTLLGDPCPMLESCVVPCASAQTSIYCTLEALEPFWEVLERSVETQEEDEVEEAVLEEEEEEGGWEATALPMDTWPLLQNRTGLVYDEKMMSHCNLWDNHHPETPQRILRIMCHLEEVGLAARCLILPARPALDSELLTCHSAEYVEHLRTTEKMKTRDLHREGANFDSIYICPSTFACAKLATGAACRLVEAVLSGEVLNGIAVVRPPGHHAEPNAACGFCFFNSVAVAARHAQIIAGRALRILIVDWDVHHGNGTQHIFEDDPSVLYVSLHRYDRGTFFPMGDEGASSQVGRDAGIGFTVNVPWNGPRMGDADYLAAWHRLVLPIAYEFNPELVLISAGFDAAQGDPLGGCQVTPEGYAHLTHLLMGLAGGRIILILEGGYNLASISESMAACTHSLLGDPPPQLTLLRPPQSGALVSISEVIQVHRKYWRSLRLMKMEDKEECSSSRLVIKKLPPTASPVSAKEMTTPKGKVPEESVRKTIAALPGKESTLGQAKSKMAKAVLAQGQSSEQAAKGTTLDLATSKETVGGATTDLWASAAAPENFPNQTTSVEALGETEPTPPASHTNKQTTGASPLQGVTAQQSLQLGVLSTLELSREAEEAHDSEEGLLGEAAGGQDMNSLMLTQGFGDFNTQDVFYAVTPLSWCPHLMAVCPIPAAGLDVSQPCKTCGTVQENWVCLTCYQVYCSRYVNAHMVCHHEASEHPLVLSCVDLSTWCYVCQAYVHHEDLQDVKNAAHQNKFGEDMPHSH

Histone deacetylase 2 = Histone deacetylase 2 (Homo sapiens, UniProt Q92769)
Description: Inhibition of HDAC2 (unknown origin) using Boc-Lys-(acetyl)-AMC as substrate incubated for 0.5 hr and measured after 20 mins by fluorescence assay

Histone deacetylase 3 = Histone deacetylase 3 (Homo sapiens, UniProt O15379); test: Inhibition of HDAC3 (unknown origin)
Histone deacetylase 8 = molecular target: T2, Histone deacetylase 8 (Homo sapiens, UniProt Q9BY41); test: Inhibition of HDAC8 (unknown origin) using Boc-Lys-(triflouroacetyl)-AMC as substrate incubated for 0.5 hr and measured after 20 mins by fluorescence assay
T2 sequence (Q9BY41 whole entry): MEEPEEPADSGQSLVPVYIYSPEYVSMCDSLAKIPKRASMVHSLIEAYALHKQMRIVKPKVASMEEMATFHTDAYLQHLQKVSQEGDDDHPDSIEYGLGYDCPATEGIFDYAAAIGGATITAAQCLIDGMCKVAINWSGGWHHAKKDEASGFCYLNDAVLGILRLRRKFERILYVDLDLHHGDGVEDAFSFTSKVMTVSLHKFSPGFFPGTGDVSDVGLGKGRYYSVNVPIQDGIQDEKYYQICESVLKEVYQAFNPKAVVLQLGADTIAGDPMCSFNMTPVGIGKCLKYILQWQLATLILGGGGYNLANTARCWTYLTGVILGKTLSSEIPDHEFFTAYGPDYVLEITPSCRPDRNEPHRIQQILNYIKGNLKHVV

[2] = molecular target: T1, Protein deacetylase HDAC6 (Mus musculus); test: Inhibition of HDAC6 in mouse B16 cells assessed as accumulation of acetylated alpha-tubulin level at 6 uM after 2 to 12 hrs by Western blotting analysis; type: cell-based; details: time 2-12 hrs, TDE = time-dependent effect
[3] = molecular target: T1, Protein deacetylase HDAC6 (Mus musculus); test: Inhibition of HDAC6 in mouse B16 cells assessed as accumulation of acetylated alpha-tubulin level at 2 to 6 uM after 24 hrs by Western blotting analysis; type: cell-based; details: dose 2-6 µM, DDE = dose-dependent effect
[4] = molecular target: T1, Protein deacetylase HDAC6 (Mus musculus); test: Inhibition of HDAC6 in mouse CT26 cells assessed as accumulation of acetylated alpha-tubulin level at 6 uM after 2 to 24 hrs by Western blotting analysis; type: cell-based; details: time 2-24 hrs, TDE = time-dependent effect
[5] = molecular target: T1, Protein deacetylase HDAC6 (Mus musculus); test: Inhibition of HDAC6 in mouse CT26 cells assessed as accumulation of acetylated alpha-tubulin level at 2 to 6 uM after 24 hrs by Western blotting analysis; type: cell-based; details: dose 2-6 µM, DDE = dose-dependent effect
[6] = Stability in mouse plasma incubated for 6 hrs in presence of NADPH and measured by LC-MS/MS analysis; type: ADME, cell-free; details: read-out: Stability
[7] = Stability in human plasma incubated for 6 hrs in presence of NADPH and measured by LC-MS/MS analysis; type: ADME, cell-free; details: read-out: Stability
[8] = Stability in mouse liver microsomes assessed as half-life and measured by LC-MS/MS analysis; type: ADME, Microsome
[9] = Stability in mouse liver microsomes assessed as clearance and measured by LC-MS/MS analysis; type: ADME, Microsome; details: read-out: CLH
[10] = Stability in human liver microsomes assessed as half-life and measured by LC-MS/MS analysis; type: ADME, Microsome
[11] = Stability in human liver microsomes assessed as clearance and measured by LC-MS/MS analysis; type: ADME, Microsome; details: read-out: CLH
B16 = test: Antiproliferative activity against mouse B16 cells after 72 hrs by MTT assay; type: functional, cell-based; details: B16, 72 h
CT26 [12] = test: Induction of apoptosis in mouse CT26 cells assessed as apoptotic cells at 6 uM measured by Annexin V-FITC/PI staining based flow cytometry method; type: functional
CT26 [13] = test: Antitumor immunity in C57BL/6 mouse xenografted with mouse CT26 cells assessed as increase in CD3+ CD8+ cytotoxic T cells at 100 mg/kg, po administered once daily for 21 days measured by flow cytometry analysis; type: functional; details: time 21 day
CT26 [14] = test: Antitumor immunity in C57BL/6 mouse xenografted with mouse CT26 cells assessed as decrease in number of CD4+CD25+ CD127- T regulatory cells at 100 mg/kg, po administered once daily for 21 days measured by flow cytometry analysis; type: functional; set-up: scale not given: the % may be the effect or the level left; details: time 21 day
CT26 [15] = test: Antitumor immunity in C57BL/6 mouse xenografted with mouse CT26 cells assessed as decrease in number of CD8+IFNgamma+ T cells at 100 mg/kg, po administered once daily for 21 days measured by flow cytometry analysis; type: functional; set-up: scale not given: the % may be the effect or the level left; details: time 21 day
CT26 [16] = test: Antitumor immunity in C57BL/6 mouse xenografted with mouse CT26 cells assessed as increase in CD3+ cytotoxic T cells at 50 mg/kg, po administered once daily for 21 days measured by flow cytometry analysis; type: functional; details: time 21 day

Histone deacetylase 3, sequence (O15379 whole entry): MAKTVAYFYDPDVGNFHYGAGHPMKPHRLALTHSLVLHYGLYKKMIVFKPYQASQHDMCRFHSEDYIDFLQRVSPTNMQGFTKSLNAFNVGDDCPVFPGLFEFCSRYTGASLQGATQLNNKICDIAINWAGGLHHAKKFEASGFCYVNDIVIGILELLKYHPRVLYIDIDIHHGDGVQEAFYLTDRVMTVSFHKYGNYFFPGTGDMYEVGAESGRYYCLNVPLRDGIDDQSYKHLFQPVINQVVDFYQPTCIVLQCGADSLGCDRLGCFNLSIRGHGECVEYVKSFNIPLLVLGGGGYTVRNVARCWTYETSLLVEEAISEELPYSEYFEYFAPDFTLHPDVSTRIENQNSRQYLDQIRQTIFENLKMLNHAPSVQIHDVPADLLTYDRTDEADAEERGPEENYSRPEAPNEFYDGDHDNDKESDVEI
Histone deacetylase 2, sequence (Q92769 whole entry): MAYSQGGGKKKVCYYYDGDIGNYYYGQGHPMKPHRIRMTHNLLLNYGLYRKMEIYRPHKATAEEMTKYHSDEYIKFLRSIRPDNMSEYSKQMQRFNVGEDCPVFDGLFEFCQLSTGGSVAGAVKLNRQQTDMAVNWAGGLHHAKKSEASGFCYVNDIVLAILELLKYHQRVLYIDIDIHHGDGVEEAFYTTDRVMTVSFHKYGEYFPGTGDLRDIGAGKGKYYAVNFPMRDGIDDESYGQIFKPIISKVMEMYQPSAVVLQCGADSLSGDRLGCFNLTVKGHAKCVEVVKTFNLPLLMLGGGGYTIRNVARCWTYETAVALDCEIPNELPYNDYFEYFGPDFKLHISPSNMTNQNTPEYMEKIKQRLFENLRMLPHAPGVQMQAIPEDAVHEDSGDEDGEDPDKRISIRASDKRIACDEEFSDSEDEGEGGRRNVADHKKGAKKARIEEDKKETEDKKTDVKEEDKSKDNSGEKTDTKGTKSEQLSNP

## COc1cc(OCc2cccc(-c3ccc4c(c3)OCCO4)c2C)cc(OC)c1CNCCCCCC(=O)NO
[1]
  acetylated alpha-tubulin accumulation: Active

## COc1cc(OCc2cccc(-c3ccccc3)c2C)cc(OC)c1CNCCCCCCC(=O)NO
Histone deacetylase 2
  pIC50: 6.76
Histone deacetylase 3
  pIC50: 7.34
Histone deacetylase 8
  pIC50: 5.66
[1]
  acetylated alpha-tubulin accumulation: Active
[2]
  inhibition: Tde
[3]
  inhibition: Dde
[4]
  inhibition: Tde
[5]
  inhibition: Dde
[6]
  remaining at 6 h: 23%
[7]
  remaining at 6 h: 97%
[8]; liver microsomes
  half-life: 1.13 h
[9]
  microsomal CLint: 20.4 µL/min/mg
[10]
  half-life: 1.7 h
[11]
  microsomal CLint: 34.1 µL/min/mg

## COc1cc(OCc2cccc(-c3ccccc3)c2C)cc(OC)c1CNCCCCCC(=O)NO
[1]
  acetylated alpha-tubulin accumulation: Active

## O=C(CCCCCCC(=O)Nc1ccccc1)NO [VORINOSTAT]
B16
  pIC50: 5.65
CT26 [12]
  Activity: 26%
[6]
  remaining at 6 h: 20%
[7]
  remaining at 6 h: 77%
[8]; microsomes
  t1/2: 11.6 h
[9]
  microsomal CLint: 2.04 µL/min/mg
[10]
  half-life: 4.32 h
[11]
  microsomal CLint: 4.02 µL/min/mg
CT26 [13]
  Activity: 32.56%
CT26 [14]
  Activity: 27.99%
CT26 [15]
  Activity: 21.12%
CT26 [16]
  Activity: 57.83%

## Cc1c(COc2ccc(CNCCCCCCC(=O)NO)c(OCc3cccc(C#N)c3)c2)cccc1-c1ccccc1
[1]
  acetylated alpha-tubulin accumulation: Active

— ChEMBL document CHEMBL5143616, “Novel biphenyl-based scaffold as potent and selective histone deacetylase 6 (HDAC6) inhibitors: Identification, development and pharmacological evaluation” (Eur J Med Chem, 2022)
